{
  "source": "BindingDB's records for doi:10.1016/s0960-894x(99)00552-1",
  "about": "(Smithkline Beecham Pharmaceuticals, 1999)",
  "data": [
    {"experiment": "Inhibitory activity against IgE receptor", "units": {"IC50": "nM"}, "values": [
      {"smiles": "NC(=O)[C@H](Cc1ccccc1)NC(=O)[C@H](Cc1ccc2ccc(O)cc2c1)[C@H](O)C(=O)NO", "note": "[(2R,3S)-N*4*-((S)-1-Carbamoyl-2-phenyl-ethyl)-2,N*1*-dihydroxy-3-(7-hydroxy-naphthalen-2-ylmethyl)-succinamide]", "IC50": 760},
      {"smiles": "NC(=O)[C@H](Cc1ccccc1)NC(=O)[C@H](Cc1sc2ccccc2c1Cl)[C@H](O)C(=O)NO", "note": "[(2R,3S)-N*1*-((S)-1-Carbamoyl-2-phenyl-ethyl)-2-(3-chloro-benzo[b]thiophen-2-ylmethyl)-3,N*4*-dihydroxy-succinamide]", "IC50": "> 10000"},
      {"smiles": "NC(=O)[C@H](Cc1ccccc1)NC(=O)[C@H](Cc1ccc2ccc(OCc3ccccc3)cc2c1)[C@H](O)C(=O)NO", "note": "[(2R,3S)-2-(7-Benzyloxy-naphthalen-2-ylmethyl)-N*1*-((S)-1-carbamoyl-2-phenyl-ethyl)-3,N*4*-dihydroxy-succinamide]", "IC50": "> 20000"},
      {"smiles": "CC(C)(C)[C@H](NC(=O)[C@H](Cc1ccc2ncccc2c1)[C@H](O)C(=O)NO)C(N)=O", "note": "[(2R,3S)-N*4*-((S)-1-Carbamoyl-2,2-dimethyl-propyl)-2,N*1*-dihydroxy-3-quinolin-6-ylmethyl-succinamide]", "IC50": 1000},
      {"smiles": "O=C(C[C@@H](Cc1ccc2ccccc2c1)C(=O)N[C@@H](Cc1ccccc1)C(=O)NCc1ccccc1)NO", "note": "[(R)-N*1*-((S)-1-Benzylcarbamoyl-2-phenyl-ethyl)-N*4*-hydroxy-2-naphthalen-2-ylmethyl-succinamide]", "IC50": 1000},
      {"smiles": "CNC(=O)[C@@H](NC(=O)[C@H](Cc1ccc2c(c1)CCCC2)[C@H](O)C(=O)NO)C(C)(C)C", "note": "[(2R,3S)-N*4*-((S)-2,2-Dimethyl-1-methylcarbamoyl-propyl)-2,N*1*-dihydroxy-3-(5,6,7,8-tetrahydro-naphthalen-2-ylmethyl)-succinamide]", "IC50": "> 10000"},
      {"smiles": "NC(=O)[C@H](Cc1ccccc1)NC(=O)[C@H](Cc1cc2ccccc2s1)[C@H](O)C(=O)NO", "note": "[(2R,3S)-2-Benzo[b]thiophen-2-ylmethyl-N*1*-((S)-1-carbamoyl-2-phenyl-ethyl)-3,N*4*-dihydroxy-succinamide]", "IC50": 20},
      {"smiles": "NC(=O)[C@H](Cc1ccccc1)NC(=O)[C@H](Cc1ccc2cc(F)ccc2c1)[C@H](O)C(=O)NO", "note": "[(2R,3S)-N*1*-((S)-1-Carbamoyl-2-phenyl-ethyl)-2-(6-fluoro-naphthalen-2-ylmethyl)-3,N*4*-dihydroxy-succinamide]", "IC50": 220},
      {"smiles": "NC(=O)[C@H](Cc1ccccc1)NC(=O)[C@H](Cc1nc2ccccc2s1)[C@H](O)C(=O)NO", "note": "[(2R,3S)-2-Benzothiazol-2-ylmethyl-N*1*-((S)-1-carbamoyl-2-phenyl-ethyl)-3,N*4*-dihydroxy-succinamide]", "IC50": 320},
      {"smiles": "CC(C)(C)[C@H](NC(=O)C(C[C@@H]1CCc2ccccc2C1)[C@H](O)C(=O)NO)C(N)=O", "note": "(some centres not stated)", "IC50": 70},
      {"smiles": "NC(=O)[C@H](Cc1ccccc1)NC(=O)[C@H](Cc1ccc2ccc(F)cc2c1)[C@H](O)C(=O)NO", "note": "[(2R,3S)-N*1*-((S)-1-Carbamoyl-2-phenyl-ethyl)-2-(7-fluoro-naphthalen-2-ylmethyl)-3,N*4*-dihydroxy-succinamide]", "IC50": 100},
      {"smiles": "CC(C)(C)[C@H](NC(=O)[C@H](Cc1ccc2ccccc2c1)[C@H](O)C(=O)NO)C(N)=O", "note": "[(2R,3S)-N*4*-((S)-1-Carbamoyl-2,2-dimethyl-propyl)-2,N*1*-dihydroxy-3-naphthalen-2-ylmethyl-succinamide]", "IC50": 20},
      {"smiles": "CNC(=O)[C@H](Cc1ccccc1)NC(=O)[C@H](Cc1cc2cccc(OC)c2o1)[C@H](O)C(=O)NO", "note": "[(2R,3S)-2,N*1*-Dihydroxy-3-(7-methoxy-benzofuran-2-ylmethyl)-N*4*-((S)-1-methylcarbamoyl-2-phenyl-ethyl)-succinamide]", "IC50": "> 20000"},
      {"smiles": "CNC(=O)[C@H](Cc1ccccc1)NC(=O)[C@H](Cc1ccc2ccccc2c1)[C@H](O)C(=O)NO", "note": "[(2R,3S)-2,N*1*-Dihydroxy-N*4*-((S)-1-methylcarbamoyl-2-phenyl-ethyl)-3-naphthalen-2-ylmethyl-succinamide]", "IC50": 400},
      {"smiles": "CC(C)(C)[C@H](NC(=O)[C@H](Cc1ccc2ccc(F)cc2c1)[C@H](O)C(=O)NO)C(N)=O", "note": "[(2R,3S)-N*1*-((S)-1-Carbamoyl-2,2-dimethyl-propyl)-2-(7-fluoro-naphthalen-2-ylmethyl)-3,N*4*-dihydroxy-succinamide]", "IC50": 80},
      {"smiles": "NC(=O)[C@H](Cc1ccccc1)NC(=O)[C@H](Cc1ccc2ccccc2c1)[C@H](O)C(=O)NO", "note": "[(2R,3S)-N*4*-((S)-1-Carbamoyl-2-phenyl-ethyl)-2,N*1*-dihydroxy-3-naphthalen-2-ylmethyl-succinamide]", "IC50": 600},
      {"smiles": "CC(C)(C)[C@H](NC(=O)C(C[C@H]1CCc2ccccc2C1)[C@H](O)C(=O)NO)C(N)=O", "note": "(some centres not stated)", "IC50": 70},
      {"smiles": "CC(C)(C)[C@H](NC(=O)[C@H](Cc1cnc2ccccc2c1)[C@H](O)C(=O)NO)C(N)=O", "note": "[(2R,3S)-N*4*-((S)-1-Carbamoyl-2,2-dimethyl-propyl)-2,N*1*-dihydroxy-3-quinolin-3-ylmethyl-succinamide]", "IC50": 20},
      {"smiles": "CNC(=O)[C@H](Cc1ccccc1)NC(=O)[C@H](Cc1csc2ccccc12)[C@H](O)C(=O)NO", "note": "[(2R,3S)-2-Benzo[b]thiophen-3-ylmethyl-3,N*4*-dihydroxy-N*1*-((S)-1-methylcarbamoyl-2-phenyl-ethyl)-succinamide]", "IC50": "> 1000"},
      {"smiles": "CC(C)(C)[C@H](NC(=O)[C@H](Cc1ccc2cc(F)c(F)cc2c1)[C@H](O)C(=O)NO)C(N)=O", "note": "[(2R,3S)-N*1*-((S)-1-Carbamoyl-2,2-dimethyl-propyl)-2-(6,7-difluoro-naphthalen-2-ylmethyl)-3,N*4*-dihydroxy-succinamide]", "IC50": "> 1000"},
      {"smiles": "CNC(=O)[C@H](Cc1ccccc1)NC(=O)[C@H](Cc1cc2ccccc2o1)[C@H](O)C(=O)NO", "note": "[(2R,3S)-2-Benzofuran-2-ylmethyl-3,N*4*-dihydroxy-N*1*-((S)-1-methylcarbamoyl-2-phenyl-ethyl)-succinamide]", "IC50": 100},
      {"smiles": "CNC(=O)[C@@H](NC(=O)[C@H](Cc1ccc2ccccc2c1)[C@H](O)C(=O)NO)C(C)(C)C", "note": "[(2R,3S)-N*4*-((S)-2,2-Dimethyl-1-methylcarbamoyl-propyl)-2,N*1*-dihydroxy-3-naphthalen-2-ylmethyl-succinamide]", "IC50": 230}
    ]}
  ]
}
